pIC50: −log10 of the molar value.
Columns and labels:
[1] = tested on: 1121L (Lung); assay: In vitro cytotoxic activity, 36 tumor cell lines panel; assay type: cell-based; conditions: 96 hours
Experimental: (§1) Culture conditions and activity evaluations of Compound 1 against 36 cancer cell lines were done as described below. Results were expressed as the concentration of drug which inhibits 50% of the cell growth (IC50, calculated using the formula: [Ti/C]×100=−50).
(§2) The compound was dissolved at 10 mM in DMSO. Dilution in vehicle to concentrations of 30, 10, 3, 1 and 0.3 μM were prepared immediately before assays. Depending on the cell line's growth characteristics, 4000-10000 cells were plated in two 96-wells pates (day 0) and incubated for 16 hours. The following day, propidium iodide was added to one of the two plates. Test compound was added to the second plate, as well as vehicle control, and cells further incubated for 96 hours. The compound was tested at each concentration and in triplicates. The equivalent cell number was determined after adding propidium iodide by measuring the signal by fluorescence (Ti for test article, C for control).

[2] = tested on: 276L (Melanoma); assay: as above; assay type: cell-based; conditions: 96 hours
Experimental: as §1, §2

[3] = tested on: PC3M (Prostate); assay: as above; assay type: cell-based; conditions: Homo sapiens, PC-3M, 96 hours
Experimental: as §1, §2

[4] = tested on: 1657L (Pancreas); assay: as above; assay type: cell-based; conditions: 96 hours
Experimental: as §1, §2

[5] = tested on: 536L (Head & Neck); assay: as above; assay type: cell-based; conditions: 96 hours
Experimental: as §1, §2

[6] = tested on: LNCAP (Prostate); assay: as above; assay type: cell-based; conditions: Homo sapiens, 96 hours
Experimental: as §1, §2

[7] = tested on: 944L (Renal); assay: as above; assay type: cell-based; conditions: 96 hours
Experimental: as §1, §2

[8] = tested on: 520L (Melanoma); assay: as above; assay type: cell-based; conditions: 96 hours
Experimental: as §1, §2

[9] = tested on: 1752L (Pleuramesot.); assay: as above; assay type: cell-based; conditions: 96 hours
Experimental: as §1, §2

[10] = tested on: SF268 (CNS); assay: as above; assay type: cell-based; conditions: Homo sapiens, SF-268, 96 hours
Experimental: as §1, §2

[11] = tested on: 498NL (CNS); assay: as above; assay type: cell-based; conditions: 96 hours
Experimental: as §1, §2

[12] = tested on: 1619L (Ovarian); assay: as above; assay type: cell-based; conditions: 96 hours
Experimental: as §1, §2

[13] = tested on: T24 (Bladder); assay: as above; assay type: cell-based; conditions: 96 hours
Experimental: as §1, §2

[14] = tested on: 401NL (Mammary); assay: as above; assay type: cell-based; conditions: 96 hours
Experimental: as §1, §2

[15] = tested on: 1138L (Uterus); assay: as above; assay type: cell-based; conditions: 96 hours
Experimental: as §1, §2

[16] = tested on: OVCAR3 (Ovarian); assay: as above; assay type: cell-based; conditions: Homo sapiens, OVCAR-3, 96 hours
Experimental: as §1, §2

[17] = tested on: 1218L (Bladder); assay: as above; assay type: cell-based; conditions: 96 hours
Experimental: as §1, §2

[18] = tested on: HCT116 (Colon); assay: as above; assay type: cell-based; conditions: Homo sapiens, HCT-116, 96 hours
Experimental: as §1, §2

[19] = tested on: 289L (Lung); assay: as above; assay type: cell-based; conditions: 96 hours
Experimental: as §1, §2

[20] = tested on: 514L (Melanoma); assay: as above; assay type: cell-based; conditions: 96 hours
Experimental: as §1, §2

[21] = tested on: MCF7 (Mammary); assay: as above; assay type: cell-based; conditions: Homo sapiens, 96 hours
Experimental: as §1, §2

[22] = tested on: 393NL (Renal); assay: as above; assay type: cell-based; conditions: 96 hours
Experimental: as §1, §2

[23] = tested on: 462NL (Melanoma); assay: as above; assay type: cell-based; conditions: 96 hours
Experimental: as §1, §2

[24] = tested on: H460 (Lung); assay: as above; assay type: cell-based; conditions: Homo sapiens, NCI-H460, 96 hours
Experimental: as §1, §2

[25] = tested on: 629L (Lung); assay: as above; assay type: cell-based; conditions: 96 hours
Experimental: as §1, §2

[26] = tested on: 529L (Lung); assay: as above; assay type: cell-based; conditions: 96 hours
Experimental: as §1, §2

[27] = tested on: 1781L (Renal); assay: as above; assay type: cell-based; conditions: 96 hours
Experimental: as §1, §2

[28] = tested on: PANC1 (Pancreas); assay: as above; assay type: cell-based; conditions: Homo sapiens, PANC-1, 96 hours
Experimental: as §1, §2

[29] = tested on: 899L (Ovarian); assay: as above; assay type: cell-based; conditions: 96 hours
Experimental: as §1, §2

[30] = tested on: 394NL (Melanoma); assay: as above; assay type: cell-based; conditions: 96 hours
Experimental: as §1, §2

[31] = tested on: HT29 (Colon); assay: as above; assay type: cell-based; conditions: Homo sapiens, HT-29, 96 hours
Experimental: as §1, §2

[32] = tested on: 22RV1 (Prostate); assay: as above; assay type: cell-based; conditions: Homo sapiens, 96 hours
Experimental: as §1, §2

[33] = tested on: 251L (Gastric); assay: as above; assay type: cell-based; conditions: 96 hours
Experimental: as §1, §2

[34] = tested on: 486L (Renal); assay: as above; assay type: cell-based; conditions: 96 hours
Experimental: as §1, §2

[35] = tested on: DU145 (Prostate); assay: as above; assay type: cell-based; conditions: Homo sapiens, DU-145, 96 hours
Experimental: as §1, §2

[36] = tested on: 526L (Lung); assay: as above; assay type: cell-based; conditions: 96 hours
Experimental: as §1, §2

[37] = In vivo toxicity: single-dose maximum tolerated dose in CD1 mice; conditions: mouse, other: i.v. or i.p. (intravenous or intraperitoneal), single-dose via i.v. or i.p. routes, 1% SDS formulation
Experimental: Toxicity and therapeutic efficacy of polycyclic aromatic compounds can be determined by standard pharmaceutical procedures in cell cultures or experimental animals. Therapeutic efficacy is determined in animal models as described above and in the examples herein. Toxicity studies are done to determine the lethal dose for 10% of tested animals (LD10). Animals are treated at the maximum tolerated dose (MTD): the highest dose not producing mortality or greater than 20% body weight loss. The effective dose (ED) is related to the MTD in a given tumor model to determine the therapeutic index of the compound.
In vivo toxicity: With CD1 mice, the maximum tolerated dose (MTD) for a single-dose via i.v. or i.p. routes in 1% SDS formulation was ≧5 mg/kg. The acute toxicity in CD-1 nu/nlu mice of Compound 1 was also determined in 6% Tween/4.5% Glycocholate/5% EtOH formulation.

CCC(C)c1cc2c(=O)c3ccc4c(OC)c5c(=O)c6c(O)ccc(O)c6c(=O)c5c(O)c4c3c(=O)c2c(=O)n1CC(=O)N1CC(C(=O)O)NC(=O)C1C (stereo not shown) [Compound 1] showed a pIC50 [1] of 6.20, a pIC50 [2] of 5.08 and a pIC50 [3] of 6.04. For the same compound, the pIC50 [4] was 4.70, the pIC50 [5] was 4.65 and the pIC50 [6] was 6.14. It also gave a pIC50 [7] of 4.83, a pIC50 [8] of 5.14 and a pIC50 [9] of 5.37. For the same compound, the pIC50 [10] was 5.82, the pIC50 [11] was 5.43 and the pIC50 [12] was 4.71. The pIC50 [13] was 5.29, the pIC50 [14] was over 6.39 and the pIC50 [15] was over 6.39. For the same compound, the pIC50 [16] was 4.58, the pIC50 [17] was 4.74 and the pIC50 [18] was 5.08. It also gave a pIC50 [19] of 5.30, a pIC50 [20] of 4.97 and a pIC50 [21] of 5.36. It also gave a pIC50 [22] of 5.04, a pIC50 [23] of 4.61 and a pIC50 [24] of 5.22. For the same compound, the pIC50 [25] was 4.92, the pIC50 [26] was 5.66 and the pIC50 [27] was 5.12. For the same compound, the pIC50 [28] was 4.84, the pIC50 [29] was 4.46 and the pIC50 [30] was 5.00. The pIC50 [31] was 5.24, the pIC50 [32] was 5.78 and the pIC50 [33] was 6.14. It also gave a pIC50 [34] of 4.68, a pIC50 [35] of over 6.39 and a pIC50 [36] of 5.51. For the same compound, the MTD [37] was at least 5 mg/kg.

Reference: US20060106028A1, “Polycyclic aromatics and derivatives thereof and processes for their preparation” (priority 2004, published 2006)
